# Laboratory results: article PMC3438169 (PLoS ONE, 2012)
# “Also recorded” adds a separate entry of the source. *1 amine or outer side, *2 acyl side, *3 side chain or, on linkers, in order; H or OH if unused. Where a SMILES comes first, the peptide text is derived from it. [ ]: non-standard residue; d: D form. dAla(ψthiazole) = C[C@@H](N[*:1])c1nc(C(=O)[*:2])cs1; Trp(4-OMe) = COc1cccc2[nH]cc(C[C@H](N)C(=O)O)c12; dAbu = CC[C@@H](N)C(=O)O; Dha = C=C(N)C(=O)O; Sar = CNCC(=O)O
# Columns and labels:
# P. aeruginosa EF-G1 = target: T1, P. aeruginosa EF-G1 (Pseudomonas aeruginosa, UniProt Q9HWD2); experiment: Surface plasmon resonance (SPR); format: binding
# T1 construct: P. aeroginosa fusA1 encoding full-length EF-G was PCR amplified from pET28a-PaEFG-Nhis; made in house; host or cells: E. coli BL21 (DE3)
# From the text: For wild type P. aeruginosa EF-G1 expression, the fusA gene was amplified from genomic DNA of P. aeruginosa PAO1 K767 using the primer pair EFG-F/EFG-R: […]/[…]. The product was digested with NdeI and HindIII and ligated into similarly digested pET28a to generate pET28a-PaEFG-Nhis. This plasmid was then used for site directed mutagenesis to introduce the nucleotide change encoding EF-G1S459F (pET28a-PaEFGS459F-Nhis). The plasmids were then transformed into an E. coli strain BL21 (DE3) for expression. A single colony was used to inoculate 10 ml LB broth containing 50 µg/ml kanamycin which was incubated at 37°C overnight, with shaking at 250 rpm. The overnight culture was then diluted 100-fold into 1 liter fresh LB broth containing 50 µg/ml kanamycin. After growing at 37°C with vigorous shaking for about 2.5 hours, expression of P. aeruginosa EF-G1 or EF-G1S459F was then induced by adding 0.1 mM IPTG, with further culture incubation at 18°C for 24 hours. Cells were then pelleted by centrifugation at 5,000 rpm with Sorvall SLC-6000 rotor and stored at −20°C. Cell pellets were then resuspended in 20 ml of BugBuster solution (Novagen) and incubated at room temperature for 20 minutes. […] The protein in the fractions was monitored by UV absorbance at 280 nm. […] Protein concentration was determined by Nano-drop spectrophotometer. […]
# [1] = test system: recombinant human mEF-G1 L693Q; experiment: Biacore binding, human mEF-G1 L693Q; conditions: 10, 20, 40 µM, HBS-P+ pH 7.4, 4% DMSO
# From the text: GFM1 encoding the active site of EF-G1 (residues 36–751) was PCR amplified from pDONR221 constructs using primers (GGGGACAAGTTTGTACAAAAAAGCAGGCTTAATGTCTTCATCAGGGGTGATT, GGGGACCACTTTGTACAAGAAAGCTGGGTATTAGTTCTTGGCTTTTCC). P. aeroginosa fusA1 encoding full-length EF-G was PCR amplified from pET28a-PaEFG-Nhis using primers (GGGGACCACTTTGTACAAGAAAGCTGGGTATTATCAACCTTGTTTTTT, GGGGACAAGTTTGTACAAAAAAGCAGGCTTAATGGCCCGTACTACACCC). Purified PCR products were cloned into the pDONR221 vector using Gateway cloning and BP Clonase II (Invitrogen), shuttled into an E.coli protein expression vector for N-terminal tagging (Avitag-His6 vector) using LR Clonase II (Invitrogen), and verified by sequencing. Avitag-His6-hEF-G1 and Avitag-His6-PaEF-G constructs were transformed into BL21-AI cells (Invitrogen) and isolated single colonies were used to inoculate 5 ml cultures which were grown overnight at 37°C with shaking. […]. Briefly, protein was captured on column using binding buffer (50 mM Tris; pH 7.5, 300 mM NaCl, 20 mM imidazole, 10% glycerol), washed extensively with washing buffer (50 mM Tris; pH 7.5, 500 mM NaCl, 30 mM imidazole, 10% glycerol), and then eluted with elution buffer (50 mM Tris; pH 7.5, 500 mM NaCl, 250 mM imidazole, 10% glycerol). […]
# T1 sequence (Q9HWD2 whole entry): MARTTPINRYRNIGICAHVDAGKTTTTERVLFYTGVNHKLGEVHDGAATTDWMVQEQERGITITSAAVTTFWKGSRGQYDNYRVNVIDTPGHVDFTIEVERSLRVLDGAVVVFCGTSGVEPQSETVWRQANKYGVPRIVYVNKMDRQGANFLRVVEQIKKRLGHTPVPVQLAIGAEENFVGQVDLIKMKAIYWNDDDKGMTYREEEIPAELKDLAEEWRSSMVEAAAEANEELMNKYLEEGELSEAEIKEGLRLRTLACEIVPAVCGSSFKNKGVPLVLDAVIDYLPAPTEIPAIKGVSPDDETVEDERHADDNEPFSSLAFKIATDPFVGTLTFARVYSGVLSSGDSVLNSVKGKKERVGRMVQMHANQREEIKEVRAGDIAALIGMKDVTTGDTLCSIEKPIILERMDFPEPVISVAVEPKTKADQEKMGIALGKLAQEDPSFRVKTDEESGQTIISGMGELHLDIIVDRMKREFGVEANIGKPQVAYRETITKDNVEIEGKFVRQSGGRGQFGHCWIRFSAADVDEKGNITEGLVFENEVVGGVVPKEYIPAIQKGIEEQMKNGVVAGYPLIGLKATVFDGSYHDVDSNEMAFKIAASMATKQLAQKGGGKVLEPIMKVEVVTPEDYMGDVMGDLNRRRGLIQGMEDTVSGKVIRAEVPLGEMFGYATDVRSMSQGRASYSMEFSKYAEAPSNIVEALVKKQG
compound,measurement,setting,value
C=C1NC(=O)CN(C)C(=O)CNC(=O)[C@H](Cc2c[nH]c3cccc(OC)c23)NC(=O)[C@H](Cc2c[nH]c3ccccc23)NC(=O)c2csc(n2)[C@@H](C)NC(=O)[C@@H](CC)NC1=O [argyrin B] (cyclo([dAbu][dAla(ψthiazole)]W[Trp(4-OMe)]G[Sar][Dha])),Binding to purified P. aeruginosa EF-G (in words),P. aeruginosa EF-G1,bound purified P. aeruginosa EF-G tightly; also recorded: Very tight binding
same,Binding to human mEF-G1 (in words),[1],little binding detected
